From ChEMBL document CHEMBL1201862, “PubChem BioAssay data set” (2004)
The source made the active and inactive calls.

Legend:
cells = format: functional
INS1 = assay: INS-1E survival protection against cytokine death – cell-based, luminescence, retest, dose response (AID 449756); format: functional; settings: Rattus norvegicus;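 further: cell death triggered by IL-1 beta plus TNF-alpha plus IFN-gamma mixture; protective hits raise ATP signal compared with cytokine alone wells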
[1] = target: FAD-linked sulfhydryl oxidase ALR (Homo sapiens, UniProt P55789); assay: ALR-catalysed DTT oxidation blockers – biochemical, H2O2 detection, luminescence, cherry-pick, dose response (AID 493248)
H9c2 = assay: cells; format: functional, cell-based; settings: Rattus norvegicus, H9c2, Myocardium;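 further: confirmatory concentration-response retest of ultra-high-throughput screening hits for modulation of myocardial damage; cell death induced by hydrogen peroxide oxidative stress; compound pretreatment for 60 min then peroxide exposure for 2 h; potency is for protecting the cells against peroxide damage rather than for killing them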
[2] = target: T1, Heat shock factor protein 1 (Mus musculus, UniProt P38532); assay: enhancement of HSF1-driven luciferase signal – cell-based, NIH3T3, luminescence, dose retest, confirmation (AID 435004); format: functional;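 further: stress induced by proteasome inhibitor MG132 added 30 min after compound; luciferase reporter driven by HSF1 response element in NIH3T3 cells; actives raise luminescence as potentiators of the MG132 stress response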
T1 sequence (P38532 whole entry): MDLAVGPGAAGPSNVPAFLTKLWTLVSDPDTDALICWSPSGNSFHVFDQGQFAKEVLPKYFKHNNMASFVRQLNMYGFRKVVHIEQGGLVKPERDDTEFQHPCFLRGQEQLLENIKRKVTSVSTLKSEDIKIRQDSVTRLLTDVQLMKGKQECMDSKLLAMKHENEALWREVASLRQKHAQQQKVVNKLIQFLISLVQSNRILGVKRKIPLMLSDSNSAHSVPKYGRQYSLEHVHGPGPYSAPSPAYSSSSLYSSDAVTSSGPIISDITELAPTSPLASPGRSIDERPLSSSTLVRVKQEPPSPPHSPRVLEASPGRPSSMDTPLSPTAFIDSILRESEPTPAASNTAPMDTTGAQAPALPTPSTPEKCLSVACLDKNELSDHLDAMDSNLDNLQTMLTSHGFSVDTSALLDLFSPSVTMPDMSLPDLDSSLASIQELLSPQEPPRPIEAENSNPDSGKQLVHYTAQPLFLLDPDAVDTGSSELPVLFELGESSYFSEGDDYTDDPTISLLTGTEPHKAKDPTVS

[3] = tested on: Streptococcus sp. 'group A'; assay: Streptococcus pyogenes SK(-)GAS viability under kanamycin – luminescence, BacTiterGlo, confirmation, counter-screen for streptokinase expression inhibitor project, dose response (AID 1900); format: functional, organism-based
Streptococcus = assay: GAS UMAA2166 growth inhibition – luminescence, BacTiterGlo, counter-screen for streptokinase expression inhibitor project, dose response (AID 1915); format: functional, organism-based;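 further: potency for reduction of bacterial viability or growth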
Large T antigen = Large T antigen (Simian virus 40, UniProt P03070); format: functional, Betapolyomavirus macacae;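 further: Confirmatory-stage PubChem screen for compounds that inhibit SV40 T antigen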
[4] = target: T2, Polyadenylate-binding protein 1 (Homo sapiens, UniProt P11940); assay: MLLE domain peptide-binding blockers, IC50 – biochemical, fluorescence polarization, FITC-PAM2 peptide, dose response (AID 602259); format: functional; settings: read-out: IC50_Mean
[5] = target: T2, Polyadenylate-binding protein 1; assay: MLLE binding blockers, Cy5 peptide tracer – biochemical, fluorescence polarization, Cy5-PAM2 peptide, secondary, miRNA deadenylation inhibitor project, dose response (AID 602260); format: functional; settings: read-out: IC50_Mean
[6] = target: T1, Heat shock factor protein 1; assay: decrease of HSF1-responsive luciferase luminescence – cell-based, NIH3T3, dose retest, confirmation (AID 2382); format: functional;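 further: NIH3T3 fibroblasts with HSF1-driven luciferase reporter stressed by proteasome inhibitor MG132; luminescence from HSF1-driven luciferase expression after 8 hours of MG132 stress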
[7] = target: T3, Rac GTPase-activating protein 1 (Homo sapiens, UniProt Q9H0H5); assay: blockers of MgcRacGAP-driven Rac1 GTP hydrolysis – biochemical, ADP Hunter fluorescence, primary and confirmatory, confirmation (AID 624330); format: functional
T3 sequence (Q9H0H5 whole entry): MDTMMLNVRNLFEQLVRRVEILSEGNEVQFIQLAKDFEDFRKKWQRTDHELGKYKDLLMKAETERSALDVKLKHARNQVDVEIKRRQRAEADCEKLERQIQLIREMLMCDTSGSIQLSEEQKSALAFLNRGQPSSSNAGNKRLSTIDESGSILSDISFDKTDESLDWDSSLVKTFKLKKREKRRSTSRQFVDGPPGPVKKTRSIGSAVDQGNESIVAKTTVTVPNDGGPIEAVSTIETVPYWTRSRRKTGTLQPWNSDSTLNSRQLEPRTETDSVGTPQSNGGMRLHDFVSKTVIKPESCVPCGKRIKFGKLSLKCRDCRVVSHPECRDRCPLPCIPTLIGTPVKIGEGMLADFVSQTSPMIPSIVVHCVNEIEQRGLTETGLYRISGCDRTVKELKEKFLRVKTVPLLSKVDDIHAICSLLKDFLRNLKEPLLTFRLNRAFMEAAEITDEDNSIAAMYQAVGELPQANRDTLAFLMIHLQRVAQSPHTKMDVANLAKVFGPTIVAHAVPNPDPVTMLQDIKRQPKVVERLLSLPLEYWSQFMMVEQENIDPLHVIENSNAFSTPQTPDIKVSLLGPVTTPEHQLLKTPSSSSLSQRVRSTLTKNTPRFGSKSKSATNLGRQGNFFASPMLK

[8] = viability of HCT116 lacking mutant beta-catenin – cell-based, human colon tumor, dose response (AID 1045); format: functional;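 further: HCT116 colon tumor cells with beta catenin knocked out; cells exposed to compound for 60 hours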
[9] = viability of PTEN-deleted HCT116 cells – cell-based, HCT116 PTEN knockout, dose response (AID 1047); format: functional;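 further: HCT116 colon tumor cells with PTEN knocked out; cells exposed to compound for 60 hours before readout; potency for loss of cell viability measured by luminescence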
[10] = target: T4, Ubiquitin-conjugating enzyme E2 N (Homo sapiens, UniProt P61088); format: functional;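 further: Dose-response confirmation in a TR-FRET assay detecting UBC13-driven polyubiquitin chain formation, inhibition measured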
T4 sequence (P61088 whole entry): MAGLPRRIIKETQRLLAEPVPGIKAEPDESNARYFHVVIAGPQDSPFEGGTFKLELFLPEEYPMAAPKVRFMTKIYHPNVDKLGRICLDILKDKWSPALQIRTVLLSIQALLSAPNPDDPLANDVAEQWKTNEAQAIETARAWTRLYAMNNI

Cytochrome P450 2C9 = Cytochrome P450 2C9 (Homo sapiens, UniProt P11712)
Vero = assay: cells; format: functional; settings: Chlorocebus sabaeus
[11] = viability of uninfected HEp-2 cells – cell-based, HTS, cytotoxicity control for RSV inhibitor project, dose response (AID 2410); format: functional; settings: human respiratory syncytial virus
[12] = Luminescence Cell-Based Dose Retest to Confirm Inhibitors of Cancer Stem Cells. [Related pubchem assays (depositor defined):AID2717, AID2721]; format: functional; settings: Homo sapiens

Sequence of Large T antigen (P03070 whole entry, the tested form may be a part): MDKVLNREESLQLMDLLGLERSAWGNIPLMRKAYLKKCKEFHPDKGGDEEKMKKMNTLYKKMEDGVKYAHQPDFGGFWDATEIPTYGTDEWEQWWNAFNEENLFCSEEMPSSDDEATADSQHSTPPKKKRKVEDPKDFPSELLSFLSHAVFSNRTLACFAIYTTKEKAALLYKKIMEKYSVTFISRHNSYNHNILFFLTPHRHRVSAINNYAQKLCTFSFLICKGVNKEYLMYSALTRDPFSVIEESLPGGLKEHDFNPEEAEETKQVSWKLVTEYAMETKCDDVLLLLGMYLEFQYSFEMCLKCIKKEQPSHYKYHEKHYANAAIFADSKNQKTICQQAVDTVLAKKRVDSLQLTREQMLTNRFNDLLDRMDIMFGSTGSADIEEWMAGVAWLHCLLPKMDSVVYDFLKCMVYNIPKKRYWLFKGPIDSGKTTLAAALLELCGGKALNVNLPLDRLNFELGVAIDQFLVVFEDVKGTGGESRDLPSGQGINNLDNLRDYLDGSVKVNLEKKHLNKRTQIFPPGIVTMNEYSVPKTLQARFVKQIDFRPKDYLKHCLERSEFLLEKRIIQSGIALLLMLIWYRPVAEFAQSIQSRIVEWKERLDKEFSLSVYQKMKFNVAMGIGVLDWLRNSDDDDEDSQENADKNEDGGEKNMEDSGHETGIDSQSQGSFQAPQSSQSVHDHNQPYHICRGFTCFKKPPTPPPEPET
Sequence of FAD-linked sulfhydryl oxidase ALR (P55789 whole entry): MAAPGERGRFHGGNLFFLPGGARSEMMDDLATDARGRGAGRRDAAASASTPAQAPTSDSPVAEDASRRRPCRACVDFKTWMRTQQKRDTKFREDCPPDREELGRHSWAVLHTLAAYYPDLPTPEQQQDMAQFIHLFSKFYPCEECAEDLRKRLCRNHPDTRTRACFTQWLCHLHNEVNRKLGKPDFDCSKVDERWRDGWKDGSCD
T2 sequence (P11940 whole entry, the tested form may be a part): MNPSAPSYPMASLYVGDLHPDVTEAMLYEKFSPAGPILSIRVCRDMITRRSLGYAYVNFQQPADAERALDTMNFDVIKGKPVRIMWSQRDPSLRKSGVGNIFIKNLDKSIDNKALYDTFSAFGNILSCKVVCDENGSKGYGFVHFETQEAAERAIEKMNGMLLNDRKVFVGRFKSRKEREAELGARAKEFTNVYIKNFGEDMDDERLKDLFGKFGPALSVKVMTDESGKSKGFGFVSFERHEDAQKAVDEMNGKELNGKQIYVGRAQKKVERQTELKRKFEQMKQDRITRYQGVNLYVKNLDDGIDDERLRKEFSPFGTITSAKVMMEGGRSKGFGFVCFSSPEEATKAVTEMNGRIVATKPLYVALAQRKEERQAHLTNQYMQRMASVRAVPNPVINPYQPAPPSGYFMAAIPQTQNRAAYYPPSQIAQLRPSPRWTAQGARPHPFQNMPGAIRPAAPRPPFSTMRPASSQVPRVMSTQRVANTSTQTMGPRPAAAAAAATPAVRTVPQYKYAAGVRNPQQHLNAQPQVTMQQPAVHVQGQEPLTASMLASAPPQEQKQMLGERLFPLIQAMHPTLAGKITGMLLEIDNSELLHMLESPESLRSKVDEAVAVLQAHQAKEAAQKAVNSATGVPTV
Sequence of Cytochrome P450 2C9 (P11712 whole entry): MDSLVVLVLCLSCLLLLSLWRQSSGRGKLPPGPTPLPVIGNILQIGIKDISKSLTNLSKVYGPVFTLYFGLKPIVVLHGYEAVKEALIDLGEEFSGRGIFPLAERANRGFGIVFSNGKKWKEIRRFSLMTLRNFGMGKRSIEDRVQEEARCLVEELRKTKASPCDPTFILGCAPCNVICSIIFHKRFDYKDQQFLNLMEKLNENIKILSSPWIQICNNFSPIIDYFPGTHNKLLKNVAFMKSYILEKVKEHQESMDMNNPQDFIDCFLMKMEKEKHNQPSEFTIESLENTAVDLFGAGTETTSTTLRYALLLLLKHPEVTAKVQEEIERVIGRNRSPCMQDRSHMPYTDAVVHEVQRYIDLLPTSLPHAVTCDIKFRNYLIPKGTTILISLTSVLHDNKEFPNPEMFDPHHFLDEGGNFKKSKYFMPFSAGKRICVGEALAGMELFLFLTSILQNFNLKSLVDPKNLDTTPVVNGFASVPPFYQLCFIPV

CCCc1cc(C(=O)Nc2ccccc2SC)no1
IC50 (cells): 10.5 µM (active)

CCC(/C=C1\Sc2ccc(OC)cc2N1CCCS(=O)(=O)[O-])=C\c1sc2ccc(OC)cc2[n+]1CC
AC50 (INS1): 3.3 µM (active) | AC50 [1]: 8.75 µM (active)

O=C(/C=C/NNC(=O)c1ccccc1)c1ccc(Br)cc1
IC50 (H9c2): 12.4 µM (active) | EC50 [2]: 39.1 µM (active)

COc1cccc(COC(=O)c2sc3nc4n(c(=O)c3c2C)CCC4)c1OC
EC50 [3]: 1.6 µM (active) | IC50 (cells): 4.36 µM (active) | EC50 (Streptococcus): 8.48 µM (active)

Nc1cc(CN2C(=O)c3ccccc3C2=O)cc(Cl)c1O
IC50 (Large T antigen): 8.42 µM (active)

Nc1nc(-c2ccco2)cs1
IC50 (Large T antigen): 79.2 µM (active)

Cc1cc(C(=O)Nc2nnc(-c3ccccc3)s2)no1
AC50 [1]: 18.9 µM (active)

CCOC(=O)C1CCN(c2cc3c(cc2NC(=O)c2ccc(OC)c(OC)c2)n(C)c(=O)n3C)CC1
IC50 (H9c2): 26.8 µM (active)

CC(=O)Nc1ccc(SCCN2CC[C@@H](C(C)(C)C)CCC2=O)cc1
AC50 [1]: 0.25 µM (active) | IC50 [4]: > 66 µM (inactive) | IC50 [5]: > 66 µM (inactive)

CCn1c(S)nnc1-c1ccc2[nH]c(C)c(C)c2c1
AC50 [1]: 2.49 µM (active) | EC50 [6]: > 195 µM (not active)

O=P1(c2ccccc2)Nc2ccccc2N1c1ccccc1 (stereo not given)
IC50 [7]: 28.8 µM (active)

CC(C)C(=O)Nc1ccc(O)c(-c2csc(N)n2)c1
IC50 (Large T antigen): 46.3 µM (active)

CCOC(=O)C1CCN(Cc2ccc(-c3ccccc3)cc2)CC1
IC50 [7]: 151 µM (active)

CCOC(=O)N1CCN(S(=O)(=O)c2ccc(C(=O)Nc3nc4c(s3)CC(C)CC4)cc2)CC1 (stereo not given)
EC50 [8]: 1.7 µM (active) | EC50 [9]: 1.25 µM (active)

CCC1(C)Cc2c(sc3nc(NN)n(C)c(=O)c23)CO1 (stereo not given)
IC50 (H9c2): > 79 µM (inactive)

CC(=O)Oc1c(-c2ccco2)oc2ccccc2c1=O
IC50 (cells): 23.2 µM (active)

O=C1c2ccccc2C(=O)C12OC2c1ccc(Cl)cc1Cl (stereo not given)
EC50 [8]: 20.3 µM (active) | EC50 [9]: 29.6 µM (active)

COc1ccc(OC(=O)COc2cc(C)ccc2C)cc1
IC50 [7]: 37.7 µM (active)

CCCCC(=O)Nc1ccc2c3c(cccc13)C(=O)N2CC
IC50 [10]: > 20 µM (inactive)

Cc1ccccc1C1c2[nH]c3ccccc3c2C[C@H]2C(=O)N(c3ccccc3C(=O)NCCCN3CCOCC3)C(=O)N12 (stereo not given in full)
IC50 (H9c2): 15.3 µM (active)

CCN1CCN(CCOc2ccc(Br)cc2C)CC1
IC50 [7]: 73.2 µM (active)

COc1ccc(C(=O)COC(=O)c2ccc(NC(=O)c3ccccc3)cc2)cc1
EC50 [8]: 49.9 µM (active) | EC50 [9]: 41.1 µM (active) | AC50 (Cytochrome P450 2C9): 1.41 µM (inconclusive)

O=C(Nc1ccncc1)C1CCN(S(=O)(=O)c2cccc(C(F)(F)F)c2)CC1
IC50 [10]: > 20 µM (inactive)

O=C1CCCC2=C1C(c1ccc(Cl)cc1)n1c(s/c(=C\c3ccc4ccncc4c3)c1=O)=N2 (stereo not given)
CC50 (Vero): > 25 µM (active) | CC50 [11]: 31.8 µM (active) | EC50 [2]: 146 µM (active)

O=C(NCc1nnc(O)c2ccccc12)C1CC(=O)N(c2ccccc2)C1 (stereo not given)
IC50 (H9c2): > 79 µM (inactive)

CCN(CC)C(=O)CC(c1ccc(N(C)C)cc1)c1c(OC)cc(OC)c2ccc(=O)oc12 (stereo not given)
AC50 [1]: 3.89 µM (active)

Cc1ccc(S(=O)(=O)N(C)C)cc1NC(=O)CSc1ncc(C(F)(F)F)cc1Cl
EC50 [8]: 647 µM (active) | EC50 [9]: 88.7 µM (active)

COc1ccc(NCCc2ccccn2)cc1
IC50 (Large T antigen): 19.3 µM (active)

COc1ccc(NC(=O)N(C)C[C@H]2Oc3c(NC(=O)Nc4ccc(C(F)(F)F)cc4)cccc3C(=O)N([C@H](C)CO)C[C@@H]2C)cc1
IC50 (H9c2): > 79 µM (inactive)

CNC(C)Cc1ccccc1Sc1ccc(O)cc1 (stereo not given)
AC50 [1]: 3.15 µM (active) | IC50 (Large T antigen): 94.4 µM (active) | AC50 (Cytochrome P450 2C9): 28.2 µM (inconclusive)

O=C(c1ccco1)N1CCN(Cc2cccc([N+](=O)[O-])c2)CC1
IC50 [7]: 127 µM (active)

CCC(=O)Nc1ccc(SC#N)cc1C
AC50 [1]: 0.497 µM (active) | IC50 [4]: > 66 µM (inactive) | IC50 [5]: > 66 µM (inactive)

COc1ccc(S(=O)(=O)N/N=C(/C)c2ccncc2)c(OC)c1
AC50 [1]: 0.832 µM (active)

CCC(C)[C@H]1CNCCN1CCc1cc(C(F)(F)F)cc(C(F)(F)F)c1 (stereo not given in full)
IC50 [10]: > 20 µM (inactive)

CCCn1c(SC(C(=O)Nc2cccc(OC)c2)c2ccccc2)nc2ccccc2c1=O (stereo not given)
IC50 (H9c2): > 79 µM (inactive)

CCN(CC)S(=O)(=O)c1ccc(C)c(NC(=O)CN2CCN(C)CC2)c1
IC50 [7]: 118 µM (active)

Cc1ccc(Nc2c(N)c(=O)oc3ccccc23)cc1
EC50 [8]: 12.3 µM (active) | EC50 [9]: 13.6 µM (active) | EC50 [2]: > 260 µM (inactive)

CCc1ccc(/C=N/NC(=O)Cc2cccn2C)cc1
AC50 [1]: 13.4 µM (active)

COC(=O)C1=C(C)N(CCc2ccc(OC)cc2)C(=O)C1
IC50 (H9c2): > 79 µM (inactive)

CCCC(=O)Nc1nc2ccc(NC(=O)c3ccc(Br)o3)cc2s1
IC50 (H9c2): > 79 µM (inactive)

Cc1cc2nc(NCCCO)n(CC(=O)c3cc(C(C)(C)C)c(O)c(C(C)(C)C)c3)c2cc1C
AC50 (INS1): 8.03 µM (active) | IC50 [10]: > 20 µM (inactive) | AC50 [12]: 3.14 µM (active)

CN(C)/N=C/c1ccc(N2CCOCC2)cc1
IC50 [7]: 51.2 µM (active)

O=C1/C(=C/c2ccccc2F)SC(=S)N1CCC(=O)N1CCCCC1CCO (stereo not given)
CC50 (Vero): 25 µM (active)

O=C(Nc1ccc(Cl)c(Cl)c1)Oc1ccc(NC(=O)c2ccco2)cc1
IC50 (Large T antigen): > 100 µM (active)

Nc1ccc2[nH]c(-c3cccs3)nc2c1
IC50 (Large T antigen): 11.9 µM (active) | IC50 (H9c2): 15.5 µM (active)

CN(C)c1ccc(NC(=O)CC2NCCNC2=O)cc1 (stereo not given)
IC50 (Large T antigen): 10.1 µM (active)

CCC1(C)N=C(N)Nc2nc3cc(C)c(C)cc3n21 (stereo not given)
AC50 [1]: 4.1 µM (active) | EC50 [2]: > 260 µM (inactive)

CC(=O)Nc1ccc(NC(=O)C(C)OC(=O)COc2ccc(Nc3ccccc3)cc2)cc1 (stereo not given)
IC50 [7]: 111 µM (active)

COCCN(Cc1nc(O)c2ccccc2n1)C(=O)COc1ccccc1-c1ccccc1
CC50 (Vero): > 25 µM (active)

COc1ccccc1NS(=O)(=O)c1ccc(C)c(C(=O)N2CCN(c3ccc(O)cc3)CC2)c1
AC50 [1]: 0.022 µM (active) | IC50 [7]: 24.2 µM (active)

CCOc1cc2c(cc1O)C(=NOC)CC1C2CCC2(C)C(O)CCC12 (stereo not given)
CC50 (Vero): 5.94 µM (active)

O=C(COC(=O)Cc1nnc(O)c2ccccc12)Nc1ncc(Cl)cc1Cl
IC50 (H9c2): 15.4 µM (active)

O=C(Oc1ccc2c(-c3ccccc3)cc(=O)oc2c1)C1CCCCC1
IC50 (H9c2): 34.3 µM (inactive)

Nc1nc2ccc(-c3nc4ccccc4o3)cc2s1
AC50 [1]: 2.44 µM (active)

COC(=O)c1ccc(N)c(NC=C2C(=O)CC(C)(C)CC2=O)c1
IC50 (H9c2): 6.51 µM (active)
